Experimental findings from ChEMBL document CHEMBL5356999, “Discovery and characterization of novel TRPML1 agonists” (Bioorg Med Chem Lett, 2024) are described below.

Data set [1] can be described thus: Stability in human hepatocytes assessed as half life. It is filed as ADME, cell-based, Hepatocyte.
Data set [2] is described as follows: Effect on TRPML1 knockout HEK293 cells. It is filed as functional, cell-based, Homo sapiens.
Data set [3] is described as follows: Plasma protein binding in mouse. It is filed as ADME, cell-free.
Data set [4] in a line: Stability in rat assessed as intrinsic clearance. It counts as ADME, cell-based, Hepatocyte. The note with it: hepatocytes.
Data set [5] can be described thus: Volume of distribution at steady state in mouse at 10 mg/kg, po or 1 mg/kg, iv. The settings on record: in vivo. It is filed as ADME, organism-based.
Data set [6] in a line: Apparent permeability across apical to basolateral side in MDCK-MDR1 cells. It is filed as ADME, cell-based, Canis lupus familiaris. The note with it: dog.
Data set [7] is described as follows: Stability in mouse hepatocytes assessed as half life. It is filed as ADME, cell-based, Hepatocyte.
A short description of data set [8]: Protein binding in mouse brain. It is filed as ADME, tissue-based.
Data set [9] can be described thus: Cmax in mouse at 10 mg/kg, po or 1 mg/kg, iv. It counts as ADME, organism-based. On the set-up: dose 10 mg/kg, route po. The settings on record: in vivo.
The nature of data set [10]: Stability in cynomolgus monkey assessed as intrinsic clearance. It is filed as ADME, cell-based, Macaca fascicularis, Hepatocyte. The note with it: hepatocytes.
The nature of data set [11]: Stability in human assessed as intrinsic clearance. The note with it: hepatocytes. It is filed as ADME, cell-based, Hepatocyte.
Data set [12] can be described thus: Bioavailability in mouse at 10 mg/kg, po or 1 mg/kg, iv. It counts as ADME, organism-based. The settings on record: in vivo.
Data set [13] in a line: Unbound brain-to-plasma concentration ratio in mouse measured after 8 hrs. It counts as ADME, cell-free. The settings on record: read-out: K(p,uu,brain).
Data set [14] is described as follows: Stability in cynomolgus monkey hepatocytes assessed as half life. It is filed as ADME, cell-based, Macaca fascicularis, Hepatocyte.
Data set [15] in a line: Plasma protein binding in cynomolgus monkey. It counts as ADME, cell-free, Macaca fascicularis.
The nature of data set [16]: Stability in dog assessed as intrinsic clearance. It is filed as ADME, cell-based, Canis lupus familiaris, Hepatocyte. The settings on record: hepatocytes.
A short description of data set [17]: Clearance in mouse at 10 mg/kg, po or 1 mg/kg, iv. It counts as ADME, organism-based. The settings on record: in vivo.
The nature of data set [18]: Plasma protein binding in rat. It counts as ADME.
The nature of data set [19]: Half life in mouse at 1 mg/kg, IV. It is filed as ADME, organism-based. The settings on record: in vivo.
Data set [20] is described as follows: Stability in mouse assessed as intrinsic clearance. The note with it: hepatocytes. It counts as ADME, cell-based, Hepatocyte.
Data set [21] in a line: Plasma protein binding in human. It is filed as ADME.
Data set [22] can be described thus: Efflux ratio of apparent permeability in MDCK-MDR1 cells. It counts as ADME, cell-based, Canis lupus familiaris. The note with it: dog.
Data set [23] in a line: Stability in dog assessed as half life. It is filed as ADME, cell-based, Canis lupus familiaris, Hepatocyte. The settings on record: hepatocytes.
Data set [24] in a line: Stability in rat hepatocytes assessed as half life. It is filed as ADME, cell-based, Hepatocyte.
The nature of data set [25]: Half life in mouse at 10 mg/kg, PO. The settings on record: in vivo. It counts as ADME, organism-based.

SMILES strings stand for the structures.

One may read the half-life as the time needed for the level to fall by half in the phase considered. Usually EC50 stands for the concentration giving half of the maximal effect. What is called Papp A→B is how fast a substance crosses the layer from the apical side. A word on the Cmax: it is the maximum level reached in the sampled fluid or tissue. In general, bioavailability refers to dose-corrected exposure relative to a reference, in per cent. A word on the efflux ratio: it is the permeability from basolateral to apical divided by that in the opposite direction, in the common usage. Turning to `CC(C)n1nnnc1[C@H](c1ccccc1F)N1CCN(c2cccc(Cl)c2)CC1`, the half-life in data set [1] was 37 min; in data set [7], 39.1 min; in data set [14], 14.2 min; in [19] it was 115 min; in [23], 46.3 min; in data set [24] it was 9.78 min. The EC50 in data set [2] was over 48.8 µM. Moreover, the fu in [3] is reported as 1%; in data set [15], 1%; in [18], 0.8%; in data set [21] it was 0.4%. For the same molecule, the clearance in data set [4] worked out at 332 mL/min/kg; in [10] it was 190 mL/min/kg; in data set [11], 47.6 mL/min/kg; in data set [16], 103 mL/min/kg; in [20] it was 209 mL/min/kg. Moreover, in data set [5], the Vdss was 9.27 L/kg. In data set [6], the Papp A→B turned out to be 10.7 ×10⁻⁶ cm/s. For the same molecule, the “fu,brain” value in [8] is 0.3%. The molecule also showed a Cmax in [9] of 8.96 ng/mL. The molecule further came in with a bioavailability in data set [12] of 3.45%. Besides, in data set [13], the Kp uu at 8 h was 0.55. In addition, the CL in [17] stood at 109 mL/min/kg. Besides, the efflux ratio in data set [22] was 0.6.

`Clc1cccc(N2CCN(C3c4ccccc4CCCCn4nnnc43)CC2)c1` (stereo not drawn) came in with a concentration for a half-maximal effect (EC50) in [2] of over 48.8 µM.

With `Clc1cccc(N2CCN(C3c4ccccc4CCCCCn4nnnc43)CC2)c1` (stereo not drawn), the EC50 in [2] is over 48.8 µM.

`Clc1cccc(N2CCN(C3c4ccccc4/C=C\CCCn4nnnc43)CC2)c1` (stereo not drawn) yielded an EC50 in [2] of over 48.8 µM.

With `CN(C)S(=O)(=O)c1ccc(S(=O)(=O)Nc2cccc(Cl)c2N2CCCCC2)cc1`, in data set [2], the EC50 was 1 µM.

For `CC(C)n1nnnc1[C@@H](c1ccccc1F)N1CCN(c2cccc(Cl)c2)CC1`, the half-life in data set [1] is 16.9 min; in [7], 48 min; in [14] it was 39.1 min; in [19], 131 min; in data set [25] it was 104 min; in data set [23], 57 min. Moreover, the half-life in data set [24] was 4.97 min. The same molecule yielded an EC50 in data set [2] of over 48.8 µM. Moreover, the fu is recorded as 0.5% in data set [3], 0.7% in data set [15], 0.4% in data set [18] and 0.6% in data set [21]. Also, the clearance in data set [4] came out at 652 mL/min/kg; in data set [10] it was 69.1 mL/min/kg; in [11], 104 mL/min/kg; in data set [16], 83.7 mL/min/kg; in [20], 170 mL/min/kg. In [5], this molecule came in with a Vdss of 9.01 L/kg. Also, in data set [6], the Papp A→B is 9.9 ×10⁻⁶ cm/s. Further, the “fu,brain” value in data set [8] is listed as 0.3%. Besides, the peak level in data set [9] (Cmax) was 36.2 ng/mL. For the same molecule, the bioavailability in [12] was determined as 12.4%. Moreover, in data set [13], the Kp uu at 8 h was determined as 0.77. The molecule also had a CL in data set [17] of 103 mL/min/kg. For the same molecule, the efflux ratio in data set [22] came out at 0.4.
